Data on 7 molecules can be found in patent US20220160716A1 (SORBONNE UNIVERSITE, priority 2019, published 2022).

In data set [1] the target is GSK3 (Homo sapiens, UniProt P49841). The experiment in a line: Protein kinase catalytic activity assay, GSK3. It counts as biochemical. The settings on record: read-out: IC50 of protein kinases, GSK3.
The target in data set [2] is T1, DYRK1A (Homo sapiens, UniProt Q13627).
T1 construct: made in house
Briefly: Protein kinase catalytic activity assay, DYRK1A. It counts as biochemical. Particulars: read-out: IC50 of protein kinases, DYRK1A.

Data set [3] concerns the target CK1. Briefly: Protein kinase catalytic activity assay, CK1. Particulars: read-out: IC50 of protein kinases, CK1. It counts as biochemical.
Data set [4] concerns the target T2, CDK9/T (Homo sapiens, UniProt P50750).
T2 construct: made in house
Briefly: Protein kinase catalytic activity assay, CDK9/cyclin T. It counts as biochemical. The settings on record: activator cyclin T; read-out: IC50 of protein kinases, CDK9/T.

Data set [5] addresses T3, CLK1 (Homo sapiens, UniProt P49759).
T3 construct: made in house
The experiment in a line: Protein kinase catalytic activity assay, CLK1. The format is biochemical. The settings on record: read-out: IC50 of protein kinases, CLK1.

Data set [6] concerns the target T4, CDK2/A (Homo sapiens, UniProt P24941).
T4 construct: made in house
The experiment in a line: Protein kinase catalytic activity assay, CDK2/cyclin A. It counts as biochemical. Particulars: activator cyclin A; read-out: IC50 of protein kinases, CDK2/A.

Data set [7] deals with ABCB4-I541F (Homo sapiens, UniProt P21439, I541F). Briefly: Maturation of ABCB4-I541F by immunoblot in HEK cells. The format is cell-based. More on the design: The subcloning of wild type (WT) ABCB4, isoform A (NM_000443.3), into pcDNA3 vector has been described; expressed in transfected cells; host or cells: HEK-293 (immunoblot, PC secretion). The settings on record: HEK cells, 100 μM, 16 hours, immunoblot. Here is the method:
(§1) Cyclosporin A (CsA) was from Santa Cruz Biotechnologies (Dallas, Tex.). […] Each compound was solubilized in dimethylsulfoxide (DMSO) as 1000× concentrated stock solutions in order to treat cells with 5 μM to 100 μM final concentrations, using DMSO as control vehicle at the same dilution (0.1% DMSO for all conditions). The cells were treated 24 hours post-transfection with these drugs during 16 hours, except for the viability assays for which cells were treated during three days. After drug treatment, cells were used for immunoanalyses, cell viability assays or PC secretion assays.
Western blots and indirect immunofluorescence were performed as previously described (2, 12). […] Signals were detected with ECL prime western blotting detection reagent (GE Healthcare, Velizy-Villacoublay, France) and quantified in the linear range of detection using ImageJ 1.50i software (U.S. National Institutes of Health, Bethesda, Md.).
(In general: In western blotting, separated proteins are transferred to a membrane and probed.)

Data set [8] concerns the target T5, CDK5/p25 (Homo sapiens, UniProt Q00535).
T5 construct: made in house
It counts as biochemical. Particulars: activator p25; read-out: IC50 of protein kinases, CDK5/p25.

In data set [9] the test system is HEK cells. The experiment in a line: Cell viability MTT assay in HEK cells. Particulars: three days. How it is done:
as §1
Cell viability was assessed by the conversion of MTT (3-[4,5-dimethylthiazol-2-yl]-2,5 diphenyl tetrazolium bromide) into formazan crystals by living cells, as described (14). […] These conditions were optimized in order to maintain the absorbance at 540 nm of the blanks below 0.1 OD unit (negative controls) and the absorbance at 540 nm for untreated cells between 1.0 and 1.3 OD units (positive controls). Then culture media were gently washed out, cells were lysed in 100 μL of pure DMSO and absorbance at 540 nm was measured using a multiplate cytofluorimeter SpectraFluor from Tecan (Männedorf, Switzerland). Cell viability was calculated for each triplicate after background subtraction and expressed as percentage of the mean for cells treated with vehicle only.
A general note: Formazan colour is commonly taken as a measure of viable cells.

T5 sequence (Q00535 whole entry, species assumed): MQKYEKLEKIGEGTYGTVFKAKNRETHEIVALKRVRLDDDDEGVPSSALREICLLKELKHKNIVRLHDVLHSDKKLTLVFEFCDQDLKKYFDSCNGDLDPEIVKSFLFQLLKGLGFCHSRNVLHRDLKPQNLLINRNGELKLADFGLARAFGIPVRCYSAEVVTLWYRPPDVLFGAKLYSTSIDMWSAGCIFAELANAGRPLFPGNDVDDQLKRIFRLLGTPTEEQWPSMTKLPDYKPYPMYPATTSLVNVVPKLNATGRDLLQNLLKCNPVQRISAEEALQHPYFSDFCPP
T5 sequence (Q15078 99-307 partner limits assumed, species assumed): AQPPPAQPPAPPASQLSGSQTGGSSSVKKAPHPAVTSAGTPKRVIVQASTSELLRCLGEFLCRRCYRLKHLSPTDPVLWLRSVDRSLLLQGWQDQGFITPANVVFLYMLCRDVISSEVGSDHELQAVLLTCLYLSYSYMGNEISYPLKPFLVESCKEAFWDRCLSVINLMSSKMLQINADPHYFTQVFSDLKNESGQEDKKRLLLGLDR
T3 sequence (P49759 whole entry): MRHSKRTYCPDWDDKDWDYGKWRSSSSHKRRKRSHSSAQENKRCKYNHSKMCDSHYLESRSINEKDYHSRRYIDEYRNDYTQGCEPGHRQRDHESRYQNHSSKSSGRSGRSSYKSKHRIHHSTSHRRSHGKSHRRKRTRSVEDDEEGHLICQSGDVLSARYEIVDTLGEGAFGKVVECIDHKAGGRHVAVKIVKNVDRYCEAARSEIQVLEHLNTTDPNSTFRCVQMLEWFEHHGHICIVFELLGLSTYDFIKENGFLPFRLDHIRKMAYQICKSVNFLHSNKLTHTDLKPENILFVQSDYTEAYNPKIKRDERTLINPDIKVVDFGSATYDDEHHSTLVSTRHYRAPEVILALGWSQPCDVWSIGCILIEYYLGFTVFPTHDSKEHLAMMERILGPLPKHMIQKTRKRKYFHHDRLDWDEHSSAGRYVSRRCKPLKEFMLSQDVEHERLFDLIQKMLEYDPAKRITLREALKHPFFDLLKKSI
Sequence of ABCB4-I541F (P21439 1-1279 isoform P21439-2 I541F): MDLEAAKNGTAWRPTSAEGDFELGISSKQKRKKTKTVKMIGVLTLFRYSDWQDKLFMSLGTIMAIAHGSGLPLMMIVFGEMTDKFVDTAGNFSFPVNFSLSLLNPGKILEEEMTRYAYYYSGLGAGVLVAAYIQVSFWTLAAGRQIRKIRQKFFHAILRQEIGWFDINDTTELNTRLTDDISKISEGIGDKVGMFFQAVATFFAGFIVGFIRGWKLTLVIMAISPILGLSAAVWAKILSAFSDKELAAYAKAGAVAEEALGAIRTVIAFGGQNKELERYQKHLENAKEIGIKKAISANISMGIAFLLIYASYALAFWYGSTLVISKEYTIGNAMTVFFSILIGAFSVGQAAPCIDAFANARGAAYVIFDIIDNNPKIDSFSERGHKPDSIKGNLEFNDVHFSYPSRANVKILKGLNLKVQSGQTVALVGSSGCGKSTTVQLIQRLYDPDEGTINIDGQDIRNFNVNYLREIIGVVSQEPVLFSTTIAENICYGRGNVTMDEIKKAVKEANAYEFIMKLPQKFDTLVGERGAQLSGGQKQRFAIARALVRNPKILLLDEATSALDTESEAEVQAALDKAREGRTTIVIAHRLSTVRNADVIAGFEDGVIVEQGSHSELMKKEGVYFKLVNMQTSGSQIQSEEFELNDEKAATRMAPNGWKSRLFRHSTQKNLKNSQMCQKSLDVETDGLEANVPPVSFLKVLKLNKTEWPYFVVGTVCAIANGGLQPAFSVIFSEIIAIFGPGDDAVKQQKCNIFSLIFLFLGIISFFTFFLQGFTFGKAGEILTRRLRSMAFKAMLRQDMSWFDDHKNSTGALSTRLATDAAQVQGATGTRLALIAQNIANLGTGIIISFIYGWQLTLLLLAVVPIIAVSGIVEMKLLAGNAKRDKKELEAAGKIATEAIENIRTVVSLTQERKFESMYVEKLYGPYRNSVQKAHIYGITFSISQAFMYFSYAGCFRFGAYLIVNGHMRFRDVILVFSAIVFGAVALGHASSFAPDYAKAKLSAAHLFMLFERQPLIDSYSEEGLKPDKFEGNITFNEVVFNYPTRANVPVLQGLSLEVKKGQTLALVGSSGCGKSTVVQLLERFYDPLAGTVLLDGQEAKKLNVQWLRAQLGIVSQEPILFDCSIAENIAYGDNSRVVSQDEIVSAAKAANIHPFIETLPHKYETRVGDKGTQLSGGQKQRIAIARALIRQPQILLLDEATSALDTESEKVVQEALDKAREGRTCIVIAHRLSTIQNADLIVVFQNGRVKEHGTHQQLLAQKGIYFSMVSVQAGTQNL
T2 sequence (P50750 whole entry, species assumed): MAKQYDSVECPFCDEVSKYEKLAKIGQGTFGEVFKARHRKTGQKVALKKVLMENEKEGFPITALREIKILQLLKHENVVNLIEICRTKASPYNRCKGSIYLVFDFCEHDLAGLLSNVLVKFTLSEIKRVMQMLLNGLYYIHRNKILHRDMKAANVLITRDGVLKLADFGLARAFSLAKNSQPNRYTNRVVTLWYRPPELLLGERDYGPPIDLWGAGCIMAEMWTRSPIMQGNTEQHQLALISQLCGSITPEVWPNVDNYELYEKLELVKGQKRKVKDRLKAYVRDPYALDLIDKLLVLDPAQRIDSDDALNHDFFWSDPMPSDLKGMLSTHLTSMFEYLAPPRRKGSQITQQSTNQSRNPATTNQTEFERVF
T2 sequence (O60563 whole entry partner, species assumed): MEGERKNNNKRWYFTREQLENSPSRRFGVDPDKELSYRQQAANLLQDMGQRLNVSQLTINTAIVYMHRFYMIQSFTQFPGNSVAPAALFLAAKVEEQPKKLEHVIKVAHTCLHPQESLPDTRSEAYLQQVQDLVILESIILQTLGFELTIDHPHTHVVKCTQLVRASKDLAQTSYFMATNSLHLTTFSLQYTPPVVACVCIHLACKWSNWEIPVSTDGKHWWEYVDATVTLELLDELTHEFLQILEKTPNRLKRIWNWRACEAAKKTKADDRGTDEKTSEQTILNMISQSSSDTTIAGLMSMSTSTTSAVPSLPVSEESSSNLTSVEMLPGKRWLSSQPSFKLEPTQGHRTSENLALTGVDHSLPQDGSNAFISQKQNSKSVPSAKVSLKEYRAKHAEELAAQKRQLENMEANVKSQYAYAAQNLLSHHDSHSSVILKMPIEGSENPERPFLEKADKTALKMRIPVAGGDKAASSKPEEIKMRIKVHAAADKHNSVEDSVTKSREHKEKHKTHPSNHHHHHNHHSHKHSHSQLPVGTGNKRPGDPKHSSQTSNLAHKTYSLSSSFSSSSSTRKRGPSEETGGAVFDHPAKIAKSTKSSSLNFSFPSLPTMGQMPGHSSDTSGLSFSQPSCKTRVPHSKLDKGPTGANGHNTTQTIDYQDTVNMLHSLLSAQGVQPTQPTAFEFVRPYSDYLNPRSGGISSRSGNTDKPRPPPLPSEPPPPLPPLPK
Sequence of GSK3 (P49841 whole entry): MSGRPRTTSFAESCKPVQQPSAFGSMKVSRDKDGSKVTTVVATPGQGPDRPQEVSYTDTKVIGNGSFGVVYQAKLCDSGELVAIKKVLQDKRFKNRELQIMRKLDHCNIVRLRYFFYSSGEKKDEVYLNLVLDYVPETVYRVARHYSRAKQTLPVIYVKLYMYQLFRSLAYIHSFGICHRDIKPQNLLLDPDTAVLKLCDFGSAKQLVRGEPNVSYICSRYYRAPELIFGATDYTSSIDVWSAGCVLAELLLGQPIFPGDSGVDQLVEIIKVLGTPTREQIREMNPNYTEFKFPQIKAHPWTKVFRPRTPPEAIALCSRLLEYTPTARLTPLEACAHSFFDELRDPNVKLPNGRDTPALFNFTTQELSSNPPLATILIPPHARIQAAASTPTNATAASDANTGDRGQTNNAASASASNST

For `CC[C@@H](Nc1nc(NCc2ccccc2)c2ncn(C(C)C)c2n1)C(=O)O` [M3, reference compound], the IC50 is greater than 10 µM in data set [1]; 19 µM in [2]; greater than 33 µM in [3]; greater than 33 µM in data set [4]; greater than 33 µM in [5].

With `CC(C)n1cnc2c(NCc3ccccc3)nc(N[C@@H](CO)C(=O)O)nc21` [MRT2-164], the IC50 in [1] was greater than 10 µM; in data set [2], greater than 10 µM; in data set [3] it was 28 µM; in data set [4], 17 µM; in data set [5], greater than 33 µM.

For `CC[C@@H](Nc1nc(NCc2cccc(C(F)(F)F)c2)c2ncn(C3CCCC3)c2n1)C(=O)O` [MRT2-239], the IC50 was greater than 10 µM in data set [1]; 8 µM in data set [6]; 21 µM in data set [2]; 11 µM in [8]; 4 µM in data set [3]; 20 µM in data set [4]. In data set [5], the IC50 worked out at 9 µM. The “maturation (mature form) of ABCB4-I541F” value in [7] is on record as “significantly increase the expression of a mature form of ABCB4-I541F”.

Consider `CC[C@@H](Nc1nc(NCc2ccc(F)c(F)c2)c2ncn(C3CCCC3)c2n1)C(=O)O` [MRT2-241], for which the IC50 in data set [1] is greater than 10 µM; in [6], 5.1 µM; in data set [2] it was 20 µM; in [8] it was 17 µM; in data set [3] it was 11 µM; in [4], 8 µM. Further, in data set [5], the IC50 stood at 13 µM. In data set [7], the “maturation (mature form) of ABCB4-I541F” value is listed as “significantly increase the expression of a mature form of ABCB4-I541F”.

With `CC[C@@H](Nc1nc(NCc2ccccc2)c2ncn(C3CCCC3)c2n1)C(=O)O` [MRT2-245], the IC50 in data set [1] was greater than 10 µM; in [6], 6.3 µM; in data set [2], 21 µM; in data set [8] it was 15 µM; in data set [3], 17 µM; in [4], 28 µM. Moreover, the IC50 in [5] was 13 µM. Besides, the “maturation (mature form) of ABCB4-I541F” value in data set [7] was “significantly increase the expression of a mature form of ABCB4-I541F”.

With `CC[C@@H](Nc1nc(NCc2cccc(C(F)(F)F)c2)c2ncn(C(C)C)c2n1)C(=O)O` [MRT2-249], the IC50 was greater than 10 µM in data set [1]; 9 µM in data set [6]; 9 µM in data set [2]; 27 µM in data set [8]; 5 µM in [3]; greater than 33 µM in [4]. Moreover, the IC50 in [5] was 23 µM. Also, the “maturation (mature form) of ABCB4-I541F” value in [7] is recorded as “significantly increase the expression of a mature form of ABCB4-I541F”.

`CC[C@H](CO)Nc1nc(NCc2ccccc2)c2ncn(C(C)C)c2n1` [Roscovitine, (R)-roscovitine]: the cell viability result in data set [9] (25 μM, % of vehicle-treated cells) was “less than 60%”. Also, the cytotoxicity entry in data set [9] (increasing concentrations) was “important dose-dependent cytotoxicity”.
